IC50 data for 25 compounds are collected here from patent publication US12559474B2, “Triazine derivatives having virus replication inhibitory activity and pharmaceutical composition comprising the same” (priority 2021, dated 2026).

Broadly, the IC50 is the concentration that gives 50% inhibition. Read a high IC50 as lower potency.

The structures appear in SMILES notation. “And” between values parts separate entries of the source, which are not always exact repeats. Identical values can stand only once. Where only a bound is given, the exact number is not on record here.

For the experiment, the target named is SARS-CoV-2 3CL protease (Severe acute respiratory syndrome coronavirus 2, UniProt P0DTD1). Description: biochemical. The settings on record: IC50.
`COc1ccc(Nc2nc(=O)n(CC3(C)COC3)c(=O)n2Cc2cc(F)c(F)c(F)c2)cc1` [II-0274]: the midpoint of inhibition, the IC50, lay at 3000 nM.

The compound `CC(=O)N1CC(n2cc3cc(Nc4nc(=O)n(-c5cncc6ccccc56)c(=O)n4Cc4cc(F)c(F)c(F)c4)c(Cl)cc3n2)C1` [Compound I-0289] gave an IC50 of less than 100 nM.

`CC(=O)Nc1nc2ccc(Nc3nc(=O)n(Cc4ccc[nH]c4=O)c(=O)n3Cc3cc(F)c(F)c(F)c3)cc2s1` [Compound I-0458] yielded an IC50 of less than 100 nM.

Consider `Cn1cnc(Cn2c(=O)nc(Nc3cc4cn(CCN)nc4cc3Cl)n(Cc3cc(Cl)c(F)cc3F)c2=O)n1` [II-0530], for which the 50% inhibitory concentration (IC50) was less than 100 nM.

The compound `Cn1cnc(Cn2c(=O)nc(NC34CC(Nc5ncccn5)(C3)C4)n(Cc3cc(F)c(F)c(F)c3)c2=O)n1` [II-0474] registered a concentration for half-maximal inhibition (IC50) of less than 100 nM.

On to `COC(=O)c1cccc2c1CN(c1nc(=O)n(Cc3ccc[nH]c3=O)c(=O)n1Cc1cc(F)c(F)c(F)c1)C2` [II-0216], for which the IC50 is less than 100 nM.

`Cc1cncc(-n2c(=O)nc(Nc3cc(C)c(N=S(C)(C)=O)cc3Cl)n(Cc3cc(Cl)ccc3C)c2=O)c1` [II-0629]: the concentration for half-maximal inhibition (IC50) is less than 100 nM.

As for `CC(=O)Nc1snc2cc(Cl)c(Nc3nc(=O)n(Cc4ncn(C)n4)c(=O)n3Cc3cc(Cl)c(F)cc3F)cc12` [II-0610], the IC50 was less than 100 nM.

The compound `Cc1cncc(-n2c(=O)nc(Nc3ccc(N=S4(=O)CCCC4)cc3Cl)n(Cc3cc(Cl)ccc3C)c2=O)c1` [II-0624] had a half-maximal inhibitory concentration (IC50) of less than 100 nM.

Regarding `O=c1[nH]cccc1Cn1c(=O)nc(Nc2ccc(F)cc2Cl)n(Cc2cc(F)c(F)c(F)c2)c1=O` [Compound I-0001], the IC50 lay in the range of 100 to 1000 nM.

The compound `Cc1cncc(-n2c(=O)nc(Nc3ccc(N=S4(=O)CCCC4)c(Cl)c3)n(Cc3cc(Cl)ccc3C)c2=O)c1` [II-0615] gave a half-inhibitory concentration (IC50) of less than 100 nM.

The compound `COc1ccc(Nc2nc(=O)n(Cc3ccc[nH]c3=O)c(=O)n2C2CCCc3cc(F)c(F)cc32)cc1` (racemic) [Compound I-0257] yielded an IC50 of 2900 nM.

Regarding `Cc1nc2cc(Cl)c(Nc3nc(=O)n(Cc4ccc[nH]c4=O)c(=O)n3Cc3cc(F)cc(Cl)c3)cc2n1C` [Compound I-0005], the half-inhibitory concentration (IC50) was less than 100 nM.

In turn, `O=c1[nH]cccc1Cn1c(=O)nc(NC23CC(Nc4ncc(C5CC5)cn4)(C2)C3)n(Cc2cc(F)c(F)c(F)c2)c1=O` [II-0445] came in with an IC50 of less than 100 nM.

On to `Cn1cnc(Cn2c(=O)nc(Nc3cc4cn(C)nc4cc3Cl)n(Cc3ccc(F)c(F)c3)c2=O)n1` [II-0635], for which the IC50 was less than 100 nM.

Consider `COc1ccc(Nc2nc(=O)n(Cc3cc(C)[nH]n3)c(=O)n2Cc2cc(F)c(F)c(F)c2)cc1` [Compound I-0340], for which the IC50 was 840 nM and 100 to 1000 nM.

Take `Cc1nc2cc(Cl)c(Nc3nc(=O)n(Cc4c[nH]c(=O)[nH]c4=O)c(=O)n3Cc3cc(F)c(F)c(F)c3)cc2n1C` [Compound I-0407]: the half-inhibitory concentration (IC50) was less than 100 nM.

Compound `Cn1cnc(Cn2c(=O)nc(Nc3cc4cn(C5CCNCC5)nc4cc3Cl)n(Cc3cc(Cl)c(F)cc3F)c2=O)n1` [II-0532] yielded a half-inhibitory concentration (IC50) of less than 100 nM.

On to `CC(=O)Nc1nc2ccc(Nc3nc(=O)n(-c4cncc5ccccc45)c(=O)n3Cc3ccc(F)c(C#N)c3)cc2s1` [II-0170], for which the concentration for half-maximal inhibition (IC50) is less than 100 nM.

`CN(C)C(=O)c1ccc(Cn2c(=O)nc(Nc3ccc4c(c3)CCCO4)n(Cc3cc(F)c(F)c(F)c3)c2=O)c(=O)[nH]1` [II-0042] showed an IC50 of less than 100 nM.

For the compound `CNC(=O)Cn1cc2cc(Nc3nc(=O)n(Cc4ncn(C)n4)c(=O)n3Cc3cc(F)c(F)c(Cl)c3)c(Cl)cc2n1` [II-0145], the IC50 is less than 100 nM.

For `COc1ccc(Nc2nc(=O)n(Cc3ccc[nH]c3=O)c(=O)n2Cc2cc(F)cc(C#N)c2)cc1` [Compound I-0234], the concentration for half-maximal inhibition (IC50) was less than 100 nM.

The compound `C[C@H](Nc1nc(=O)n(Cc2ccc[nH]c2=O)c(=O)n1Cc1cc(F)c(F)c(F)c1)c1ccccc1` [II-0230] showed an IC50 of 550 nM.

In the case of `CN(C)C(=O)c1ccc(Cn2c(=O)nc(Nc3cc4cn(C)nc4cc3Cl)n(Cc3cc(F)c(F)c(F)c3)c2=O)c(=O)[nH]1` [Compound I-0063], the 50% inhibitory concentration (IC50) was less than 100 nM.

In turn, `Cn1cnc(Cn2c(=O)nc(Nc3cc4c(cc3Cl)nc3n4CCN3)n(Cc3cc(F)c(F)c(Cl)c3)c2=O)n1` [II-0411] registered an IC50 of less than 100 nM.
